According to the supplement of paper PMC8024199:
± gives the standard deviation of the averaged measurements.

Legend:
Experiment in all cases: drug sensitivity score (DSS) (DSS score); higher = more sensitive (stronger growth inhibition); extreme values may be limits of the assay
[1] = system: Ba/F3 P210-BCR-ABL1 RUNX1-/- (mouse)
Summary of the method: (§1)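 Each value is a drug sensitivity score derived from CellTiter-Glo luminescence scaled between vehicle and positive-control wells. Mouse Ba/F3 clones, CRISPR/Cas9-edited at a target exon or edited controls, were seeded at 10,000 cells per well in RPMI with 10% FBS and treated for 72 h at 37 °C and 5% CO2. Compounds from a 528-compound library were tested at five concentrations over a 10,000-fold range, and scores were averaged over two replicates.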

[2] = system: Ba/F3 P210-BCR-ABL1 RUNX1-/mut (mouse)
Summary of the method: as §1

[3] = system: Ba/F3 P210-BCR-ABL1 RUNX1wt/wt control (mouse)
Summary of the method: as §1

SMILES	drug sensitivity score [1]	drug sensitivity score [2]	drug sensitivity score [3]
Cn1cc(C2=Nc3cc(NC(=O)C(N)C4CCCCC4)cc4c3C2=CNNC4=O)cn1 (stereo unspecified)	18.2 ± 0.14	16 ± 0.42	7.95 ± 1.1
COc1ccc(C[C@H](NC(=O)[C@H](C)NC(=O)CN2CCOCC2)C(=O)N[C@@H](Cc2ccccc2)C(=O)C2(C)CO2)cc1 (stereo in doubt) [ONX-0914]	22.05 ± 0.21	23.2 ± 2.6	17.8 ± 0.28
Cn1cc(C[C@@H](N)C(=O)O)c2ccccc21 [1-methyl-D-tryptophan]	0	0	0
CC/C(=C(\c1ccc(O)cc1)c1ccc(OCCN(C)C)cc1)c1ccccc1 [4-hydroxytamoxifen]	8.2 ± 0.42	8.3 ± 1.1	8.6 ± 0.28
Nc1ncnc2c1nc(N)n2[C@@H]1O[C@H](CO)[C@@H](O)[C@H]1O [8-amino-adenosine]	19.7 ± 0.42	15.8 ± 2.4	9.4 ± 0.85
Nc1ncnc2c1nc(Cl)n2[C@@H]1O[C@H](CO)[C@@H](O)[C@H]1O [8-chloro-adenosine]	15.7 ± 1.1	13.8 ± 1.3	7.95 ± 0.21
COc1cc2c(cc1OCCCN1CCCC1)N=C(N)C21CCC1 [A-366]	6.1 ± 0.57	6.5 ± 3	0
C[C@H](Nc1ncnc2[nH]cnc12)c1cc2ccc(F)cc2nc1-c1ccccn1 [AMG319]	0.15 ± 0.21	1.1 ± 1.6	0
CC(C)[C@@H](CS(=O)(=O)C(C)C)N1C(=O)[C@@](C)(CC(=O)O)C[C@H](c2cccc(Cl)c2)[C@H]1c1ccc(Cl)cc1 [AMG-232]	12.7 ± 2.3	11.2 ± 1.6	3.7 ± 0.28
COCCOc1cnc2ccn([C@H](C)c3nnc4c(F)cc(-c5cnn(C)c5)cn34)c(=O)c2c1 [AMG-337]	0	0	0
CC1CCC(n2c3cnccc3c3cnc(Nc4ccc5c(n4)CCN(C(=O)CO)C5)nc32)CC1 (stereo unspecified) [AMG-925]	4.2 ± 0.42	1.8 ± 2.1	0
COCC1(CO)C(=O)C2CCN1CC2 (stereo unspecified) [APR-246]	1.05 ± 1.5	1.4 ± 2	0.35 ± 0.49
CC(C)[C@H](C(=O)Nc1ccc(C(=O)NO)cc1)c1ccccc1 [AR-42]	20.3 ± 0.85	17.9 ± 1.1	16.5 ± 0.14
Cc1sc2c(c1C)C(c1ccc(Cl)cc1)=N[C@@H](CC(=O)Nc1ccc(OCCOCCOCCOCCNc3cccc4c3C(=O)N(C3CCC(=O)NC3=O)C4=O)cc1)c1nnc(C)n1-2 (stereo partly specified) [ARV-825]	19.8 ± 0.14	18.7 ± 3.1	17.9 ± 0.78
COc1cc(N2CCC(N3CCN(C)CC3)CC2)ccc1Nc1ncnc(Nc2ccccc2S(=O)(=O)C(C)C)n1 [ASP3026]	3.95 ± 1.6	3.9 ± 3.7	1.05 ± 0.21
O=C(NC1CCNCC1)c1n[nH]cc1NC(=O)c1c(Cl)cccc1Cl [AT7519]	11.7 ± 3.6	13.6 ± 4	2.8 ± 0.42
CN[C@@H](C)C(=O)N[C@H]1CN(C(=O)CC(C)C)CC[C@H]2CC[C@@H](C(=O)NC(c3ccccc3)c3ccccc3)N2C1=O [AT-406]	18.4 ± 1.8	4.4 ± 6.2	13 ± 1.4
CC[C@H](CC#N)OC(=O)N[C@@H](C)c1cccc(NC(=O)Nc2ccc(-c3cnco3)c(OC)c2)c1 [AVN944]	25.9 ± 0.42	24.95 ± 0.21	21.7 ± 1.6
COc1cc(N2CCN(C)CC2)ccc1Nc1nccc(-c2cn(C)c3cnccc23)n1 [AZ191]	7.2 ± 1.4	7.45 ± 2.2	2.5 ± 0.71

SMILES	drug sensitivity score [1]	drug sensitivity score [2]	drug sensitivity score [3]
CN(C)CCCOc1ccc(-c2ccc3ncc4c(c3c2)n(C2CCOCC2)c(=O)n4C)cn1 [AZD0156]	6.8 ± 1.7	7.6 ± 0.14	0
N[C@@H]1CCCN(c2c(/C=C3\SC(=O)NC3=O)cccc2-c2ccccc2)C1 [AZD1208]	11.8 ± 0.35	7.05 ± 2.5	2.4 ± 0.42
Cc1cc(Nc2nc(N[C@@H](C)c3ncc(F)cn3)ncc2Cl)[nH]n1 [AZD1480]	0	0	0
C=CCn1c(=O)c2cnc(Nc3ccc(N4CCN(C)CC4)cc3)nc2n1-c1cccc(C(C)(C)O)n1 [AZD1775]	22.8 ± 3.5	20.8 ± 1.5	19.1 ± 0.14
COc1cc2ncnc(Nc3cccc(Cl)c3F)c2cc1OC(=O)N1CCN(C)C[C@H]1C [AZD3759]	0	0	0
Cc1[nH]nc(C(F)(F)F)c1Cc1sc2c(c1C(=O)N1C[C@](C)(O)CO1)c(=O)n(C)c(=O)n2C(C)C [AZD3965]	9.05 ± 3.5	6.3 ± 0.99	0
COc1cc(CCc2cc(NC(=O)c3ccc(N4CC(C)NC(C)C4)cc3)n[nH]2)cc(OC)c1 (stereo unspecified) [AZD4547]	0.2 ± 0.28	0	0
C[C@@H]1COCCN1c1cc(C2([S@](C)(=N)=O)CC2)nc(-c2cc[nH]c3nccc2-3)n1 [AZD6738]	20.1 ± 1.4	19.2 ± 0.71	18 ± 0.57
CN(C)C(=O)c1ccc(S(=O)(=O)c2ccc(NC(=O)[C@@](C)(O)C(F)(F)F)c(Cl)c2)cc1 [AZD7545]	0.65 ± 0.071	0	0
NC(=O)Nc1cc(-c2cccc(F)c2)sc1C(=O)N[C@H]1CCCNC1 [AZD7762]	9.8 ± 2	7.8 ± 2.1	7.1 ± 0.71
N#Cc1ccc2[nH]c(O)c(-c3ccc(CN4CCOCC4)cn3)c2c1 [AZD-1080]	0	0	0
Cc1ncc(-c2ccnc(Nc3ccc(S(C)(=O)=O)cc3)n2)n1C(C)C [AZD-5438]	5.5 ± 0.99	8.8 ± 0.99	9.8 ± 0.14
Cc1cc([C@@H](C)Nc2ccccc2C(=O)O)c2nc(N3CCOCC3)cc(=O)n2c1 [AZD-6482]	0.1 ± 0.14	0.75 ± 1.1	0.15 ± 0.21
C[C@@H](Nc1cc(F)cc(F)c1)c1cc(C(=O)N(C)C)cc2c(=O)cc(N3CCOCC3)oc12 [AZD-8186]	0	0.5 ± 0.71	0
CCN1CCN(Cc2ccc(Nc3ncc(F)c(-c4cc(F)c5nc(C)n(C(C)C)c5c4)n3)nc2)CC1 [Abemaciclib]	10.2 ± 4.7	8.3 ± 6.1	3.05 ± 0.071
CN(C)Cc1c(C(=O)NCCOc2ccc(C(=O)NO)cc2)oc2ccccc12 [Abexinostat]	24.4 ± 1.3	23.2 ± 2.4	18.7 ± 0.28
CC#CC(=O)N1CCC[C@H]1c1nc(-c2ccc(C(=O)Nc3ccccn3)cc2)c2c(N)nccn12 [Acalabrutinib]	0	0.05 ± 0.071	0
COc1cc(C)c(/C=C/C(C)=C/C=C/C(C)=C/C(=O)O)c(C)c1C [Acitretin]	0	1.3 ± 1.8	0
